Tests used:
[1] = system: human xenograft tumor models; experiment: MYXV replication in human xenograft tumor models; format: in vivo; settings: human xenograft tumor models in NSG mice
2D and 3D cell cultures = experiment: MYXV replication in 2D and 3D cell cultures; format: cell-based
Colo205 cells = format: cell-based, human
PANC-1 cells [2] = format: cell-based, human
MDA-MB435 cells = format: cell-based, human
PANC-1 cells [3] = format: cell-based, human; remark: listed apart in the source

O=C(/C=C\n1cnc(-c2cc(C(F)(F)F)cc(C(F)(F)F)c2)n1)NNc1cnccn1 [selinexor]
significantly enhanced: MYXV replication [1] | MYXV replication (2D and 3D cell cultures) | MYXV gene expression and replication (Colo205 cells) | replication of vMyx-M11L-KO (progeny virus) (PANC-1 cells [2]) | replication of vMyx-hLIGHT (progeny virus) (PANC-1 cells [2]) | MYXV gene expression and replication (MDA-MB435 cells) | MYXV gene expression and replication (PANC-1 cells [3])

Source: US20250387443A1, “ENHANCING ONCOLYTIC V[…] A COMBINATION OF NUCLEAR EXPORT INHIBITOR AND MYXOMA VIRUS […] DEATH PATHWAYS” (Arizona Board of Regents on behalf of Arizona State …, priority 2024, published 2025)
